# Test results taken from paper PMC5323132, “Targeting prohibitins induces apoptosis in acute myeloid leukemia cells” (Oncotarget, 2016).
# Values joined by “and” are separate entries in the source; they are usually repeats but may differ in a detail not shown here. Equal entries are not always repeated. Where two headings read alike, the source gives them in different places.
# Legend:
# U-937 cells [1] = assay: Viability by phosphatidylserine exposure (annexin V) flow cytometry; assay type: cell-based, human; conditions: for viability at 5 µM: Homo sapiens, read-out: Viability (%) (annexin V negative cells)
# Experimental: (§1) Cell viability was assessed by phosphatidylserine exposure and measured as the percentage of annexin V-negative cell population. […] Occasionally, 3.75 μL PI were added after annexin V staining and immediately before acquisition to measure the percentage of annexin V^−/PI^− live cells. In AML samples with infiltration lower than 80% blasts, double staining with anti-CD33 or anti-CD34, and annexin V was performed. In brief, cells were washed in ABB and incubated in 50 μL ABB containing 0.5 μL anti-CD33 or anti-CD34 for 10 min in the dark and thereafter stained with annexin V, as previously mentioned. Cells were acquired using the FACSCanto^TM II flow cytometer (Becton Dickinson, Franklin Lakes, NJ, USA) and data of bulk leukemic/normal and CD33^+- or CD34^+-gated leukemic/normal progenitor cells were analyzed using the FACSDiva^TM software (Becton Dickinson). […] Patient samples were considered as “sensitive” to fluorizoline when cell viability was lower than 80% after incubation with 20 μM during 48 hours.
# HL-60 cells [2] = assay: MTT cell viability assay; assay type: cell-based; conditions: Homo sapiens, read-out: IC50 (half-maximal inhibitory concentration), MTT
# Experimental: (§2) HL-60 and U-937 cells (1.25 × 10^5 cells/well) were incubated in the absence or in the presence of the indicated factors, in a final volume of 250 μL. After 24 or 48 hours, 25 μL MTT reagent (prepared at 5 mg/mL in phosphate-buffered saline (PBS)) was added to each well for an additional 3 hours. The blue MTT formazan precipitate was dissolved in 250 μL isopropanol:1 M HCl (24:1). Then, 100 μL of this cell lysate were plated in a 96-well plate in triplicate and the absorbance values at 570 nm were measured on a multiwell plate reader. The half-maximal inhibitory concentration (IC50) was defined as the concentration of drug required to reduce the MTT metabolization ability by 50%.
# U-937 cells [3] = assay: MTT cell viability assay; assay type: cell-based; conditions: Homo sapiens, read-out: IC50 (half-maximal inhibitory concentration), MTT
# Experimental: as §2
# HL-60 cells [4] = assay: Viability by phosphatidylserine exposure (annexin V) flow cytometry; assay type: cell-based, human; conditions: 48 hours
# Experimental: (§3) Cell viability was assessed by phosphatidylserine exposure and measured as the percentage of annexin V-negative cell population. After incubation of 1.25 × 10^5 cells with the indicated factors and times, cells were then washed in annexin-binding buffer (ABB) and incubated in 100 μL ABB with 0.5 μL annexin V-APC for 10 min in the dark and then diluted with ABB to a final volume of 150 μL. Occasionally, 3.75 μL PI were added after annexin V staining and immediately before acquisition to measure the percentage of annexin V^−/PI^− live cells. In AML samples with infiltration lower than 80% blasts, double staining with anti-CD33 or anti-CD34, and annexin V was performed. In brief, cells were washed in ABB and incubated in 50 μL ABB containing 0.5 μL anti-CD33 or anti-CD34 for 10 min in the dark and thereafter stained with annexin V, as previously mentioned. Cells were acquired using the FACSCanto^TM II flow cytometer (Becton Dickinson, Franklin Lakes, NJ, USA) and data of bulk leukemic/normal and CD33^+- or CD34^+-gated leukemic/normal progenitor cells were analyzed using the FACSDiva^TM software (Becton Dickinson). Half-maximal lethal dose (LD50) was defined as the concentration of drug required to reduce the cell viability by 50%. Patient samples were considered as “sensitive” to fluorizoline when cell viability was lower than 80% after incubation with 20 μM during 48 hours.
# [5] = tested on: primary AML cells (BMMNC or PBMNC from AML patients); assay: Ex vivo viability (annexin V) of primary AML cells; assay type: cell-based, human
# Experimental: PBMNC and BMMNC were isolated by centrifugation on a Biocoll (Biochrom AG, Berlin, Germany) gradient and cryopreserved in liquid nitrogen in the presence of 10% dimethyl sulfoxide (DMSO) (Sigma-Aldrich Inc, St Louis, MO, USA).
# as §1
# [6] = Ex vivo viability (annexin V) of normal hematologic cells; assay type: cell-based, human; conditions: human, normal BMMNC and normal hematopoietic stem cells (PBSC); normal cells, 20 μM, 24 hours; read-out: viable cells (percentage of viability of untreated cells)
# Experimental: (§4) Normal BMMNC was obtained from apheresis-collected granulocyte colony-stimulating factor (G-CSF)-mobilized progenitor-cell from PB of 3 healthy donors were used as a source of normal CD34^+ cells.
# as §1
# [7] = tested on: normal BMMNC and normal hematopoietic stem cells (PBSC); assay: as above; assay type: cell-based, human; conditions: for median LD50: normal cells
# Experimental: as §4, §1
# U-937 cells [8] = assay: Methylcellulose colony-forming unit (CFU) assay; assay type: cell-based, human; conditions: pretreated 24 hours, n = 4
# Experimental: (§5) The analysis of the clonogenic capacity after exposition to the fluorizoline was performed using a methylcellulose-based medium with recombinant cytokines and erythropoietin (EPO) for human hematopoietic progenitor cells (MethoCult^TM H4034 Optimum, StemCell Technologies). U-937 cells and primary AML cells were pretreated for 24 hours with the indicated factors, as previously mentioned. Then, cells (1 × 10^3 U-937 cells or 50 × 10^3 primary AML cells) were diluted in 100 μL serum-free IMDM with 25 mM HEPES, homogeneously mixed with 1 mL MethoCult^TM medium, seeded in duplicate cultures and maintained at 37°C with 5% CO2 in air in a humidified atmosphere. Colonies (CFU) were screened based on morphology and cellularity at day 10 (U-937 cells) or day 14 (primary AML cells) using an inverted microscope. A colony was defined as a cluster of > 40 cells.
# primary AML cells = assay: Methylcellulose colony-forming unit (CFU) assay; assay type: cell-based, human; conditions: pretreated 24 hours, n = 5
# Experimental: as §5
# CD11b in U-937 cells = assay: Differentiation assay, CD11b surface expression by flow cytometry; assay type: cell-based; conditions: Homo sapiens, 48 hours, read-out: CD11b surface marker expression, fold induction compared to DMSO-treated cells
# Experimental: (§6) Myeloid maturation induction was assessed by cell surface marker expression analysis. U-937 and primary AML cells were treated as indicated for cell viability assays. After 24 and 48 hours of incubation cells were collected and stained in 50 μL PBS buffer containing 2 mM EDTA and 0.5% bovine serum albumin (BSA) with 0.5 μL anti-human CD11b for 10 min in the dark and then diluted with buffer to a final volume of 150 μL. In parallel, cell viability was analyzed by annexin V staining in separated tubes. Surface expression of the antigen was analyzed by flow cytometry. In these experiments vehicle-treated cells were also included in order to discard DMSO-induced myeloid differentiation.
# [9] = tested on: CD11b in de novo AML primary samples; assay: as above; assay type: cell-based; conditions: Homo sapiens, 48 hours, read-out: CD11b surface marker expression, fold induction compared to DMSO-treated cells
# Experimental: as §6
# NOXA mRNA in U-937 cells = assay: RT-MLPA apoptosis-related gene expression; assay type: cell-based; conditions: Homo sapiens
# Experimental: RNA was isolated from cultured 3–5 × 10^6 cells by the RNeasy Micro kit (Qiagen GmbH, Hilden, Germany) according to the manufacturer's protocol. RNA was analyzed by RT-MLPA using SALSA MLPA KIT R011-C1 Apoptosis mRNA from MRC-Holland (Amsterdam, The Netherlands) for the simultaneous detection of 40 messenger RNA molecules, including apoptosis-related genes. In brief, RNA samples (200 ng total RNA) were first reverse transcribed using a gene-specific primer mix. The resulting cDNA was annealed overnight at 60°C to the RT-MLPA probe mix. Annealed oligonucleotides were ligated by adding Ligase-65 (MRC-Holland) and incubated at 54°C for 15 min. Ligation products were amplified by PCR (35 cycles, 30 s at 95°C; 30 s at 60°C, and 1 min at 72°C) with one unlabeled and one FAM-labeled primer. The final PCR fragments amplified were separated by capillary electrophoresis on a 96-capillary ABI-Prism® 3730XL Genetic Analyzer (Applied Biosystems/Hitachi, Carlsbad, CA, USA). Peak area and height were measured using GeneMapper^TM v3.0 analysis software (Applied Biosystems). Ratios of individual peaks relative to the sum of all peaks were calculated, resulting in the relative abundance of mRNAs of the genes of interest.
# [10] = tested on: CD34+ population of AML specimens; assay: Ex vivo viability (annexin V) on CD34+ population of AML specimens; assay type: cell-based, human; conditions: six AML specimens, 48 hours
# Experimental: as §3
# [11] = tested on: CD34- population of AML specimens; assay: Ex vivo viability (annexin V) on CD34- population of AML specimens; assay type: cell-based, human; conditions: six AML specimens, 48 hours
# Experimental: as §3
# [12] = Figure 5C, 24 h, fluorizoline 5 μM, Q-VD-OPh 20 μM pre-incubated 30 min
compound,measurement,setting,value
"CC(C)[C@H](NC(=O)c1ccc2ccccc2n1)C(=O)N[C@@H](CC(=O)O)C(=O)COc1c(F)cccc1F [Q-VD-OPh, reference compound]",Viability (%) (annexin V negative cells),U-937 cells [1]; [12],95%
FC1(F)N=C(c2ccc(Cl)cc2)SC1(F)c1ccc(Cl)cc1 (centres unmarked) [fluorizoline],IC50,"HL-60 cells [2]; HL-60, 24 h",8 µM
same,IC50,"HL-60 cells [2]; HL-60, 48 h",6 µM
same,IC50,"U-937 cells [3]; U-937, 24 h",7 µM
same,IC50,"U-937 cells [3]; U-937, 48 h",5 µM
same,"LD50 (half-maximal lethal dose), annexin V",HL-60 cells [4],40 µM
same,annexin V-/PI+ population,"U-937 cells [1]; 10 µM fluorizoline, 24 h, annexin V/PI double staining",less than 6%
same,"mean LD50, annexin V",U-937 cells [1]; 24 hours,above 40 μM
same,"mean LD50, annexin V",U-937 cells [1]; 48 hours,14 µM
same,viability at 5 µM,"U-937 cells [1]; Figure 5B, 5 μM, 4 h",93%
same,viability at 5 µM,"U-937 cells [1]; Figure 5B, 5 μM, 8 h",92%
same,viability at 5 µM,"U-937 cells [1]; Figure 5B, 5 μM, 24 h",64%
same,viability at 5 µM,U-937 cells [1]; [12],63%
same,median LD50,"[5]; 24 hours, sensitive patient samples (n = 15)",8.0 ± 1.7 µM
same,mean LD50,"[5]; 48 hours, n = 21",5.3 ± 0.8 µM
same,viability at 10 µM,"[5]; Homo sapiens, 2 h, Figure 6B, patient #14, 10 μM, 2 h, read-out: Viability (%) (annexin V negative cells)",95%
same,viability at 10 µM,"[5]; Homo sapiens, 4 h, Figure 6B, patient #14, 10 μM, 4 h, read-out: Viability (%) (annexin V negative cells)",92%
same,viability at 10 µM,"[5]; Homo sapiens, 8 h, Figure 6B, patient #14, 10 μM, 8 h, read-out: Viability (%) (annexin V negative cells)",87%
same,viability at 10 µM,"[5]; Homo sapiens, 8 h, Figure 6C, patient #13, 10 μM, 8 h, read-out: Viability (%) (annexin V negative cells)",35%
same,viability at 10 µM,"[5]; Homo sapiens, 8 h, Figure 6C, patient #16, 10 μM, 8 h, read-out: Viability (%) (annexin V negative cells)",50%
same,viability at 10 µM,"[5]; Homo sapiens, 8 h, Figure 6C, patient #18, 10 μM, 8 h, read-out: Viability (%) (annexin V negative cells)",80%
same,viability at 10 µM,"[5]; Homo sapiens, 8 h, Figure 6C, patient #20, 10 μM, 8 h, read-out: Viability (%) (annexin V negative cells)",43%
same,viability at 2.5 µM,"[5]; Homo sapiens, 8 h, Figure 6C, patient #21, 2.5 μM, 8 h, read-out: Viability (%) (annexin V negative cells)",37%
same,viability at 10 µM,"[5]; Homo sapiens, 12 h, Figure 6B, patient #14, 10 μM, 12 h, read-out: Viability (%) (annexin V negative cells)",81%
same,viability at 10 µM,"[5]; Homo sapiens, 24 h, 10 μM, 24 hours, n = 20 AML samples, untreated 75.8% ± 2.9%, read-out: cell viability (annexin V negative cells)",35.5%
same,viability at 10 µM,"[5]; Homo sapiens, Figure 6D, patient #20, 24 h, fluorizoline 10 μM, Q-VD-OPh 20 μM pre-incubated 30 min, read-out: Viability (%) (annexin V negative cells)",25%
same,median LD50,"[5]; samples at relapse (n = 6), 24 hours",10.3 ± 4.0 µM
same,median LD50,"[5]; samples at relapse (n = 6), 48 hours",5.4 ± 1.6 µM
same,"viability at 24 h, 20 µM",[6],68.6%
same,LD50(μM) 24 h,"[7]; Donor No. 1-9, 24 h",> 20 µM and 16 µM
same,LD50(μM) 48 h,"[7]; Donor No. 1-9, 48 h",> 20 µM and 8 µM and 13 µM
same,median LD50,[7]; 24 hours,above 20 μM
same,median LD50,[7]; 48 hours,above 20 μM
same,mean CFU respect to untreated cells,U-937 cells [8]; 5 μM,49.9 ± 5%
same,mean CFU respect to untreated cells,U-937 cells [8]; 10 μM,1.9 ± 1%
same,mean CFU respect to untreated cells,primary AML cells; 2.5 μM,39.9 ± 5%
same,mean CFU respect to untreated cells,primary AML cells; 10 μM,5.3 ± 1.5%
same,fold induction at 40 µM,CD11b in U-937 cells,12.1
same,fold induction at 20 µM,[9],1.5
same,fold induction at 10 µM,NOXA mRNA in U-937 cells; 4 hours,3.5
same,fold induction at 10 µM,NOXA mRNA in U-937 cells; 8 hours,6.6
same,fold induction at 10 µM,NOXA mRNA in U-937 cells; 24 hours,3.1
same,LD50,[10],4.5 ± 2.3 µM
same,LD50,[11],higher than 20 μM
